Experimental data: patent publication US4837206A, “Esperamicin derivatives” (Bristol-Myers Company, priority 1987, dated 1989)
In brackets after ≈: the same amount, converted by molar mass.

How the values were obtained:
P388 murine leukemia = assay: P388 In Vivo Murine Leukemia Assay; set-up: species or system CDF1 female mice; conditions: i.p., once on day 1; for % T/C (median survival time): >=125% significant; for MST: control MST 9.5 days; for Average Wgt. change in g (day 4): control 1.1; for No. Mice alive on day 5/total: control 10/10
Description: The test protocol involved CDF1 female mice implanted intraperitoneally with a tumor inoculum of 10^6 ascites cells of P388 murine leukemia and treated with various doses of test compound. The compound was administered by intraperitoneal injection on a certain dosage schedule, i.e. test drug given once on day one, the day of tumor inoculation. Groups of four mice were used for each dosage amount. A group of ten saline-treated control mice was employed.
The test compound was dissolved in a mixture of water and ethanol. Death or survival of the treated and non-treated mice was recorded daily, and the median survival time (MST) in days was calculated for the test (T) and control (C) groups. […] Mice weighing 20 g each were employed and a loss in weight of up to about 2 grams was not considered excessive.

[1] = test system: S. aureus/ATCC 29213 A24407; assay: Antimicrobial activity, serial two-fold agar dilution; assay type: cell-based; conditions: Staphylococcus aureus, ATCC29213; nutrient agar medium
Description: (§1) Antimicrobial activity of N-acetylesperamicin A1 was determined for a variety of bacteria by the serial two-fold agar dilution method. Nutrient agar medium was used.

E. coli A15119 = assay: as above; assay type: cell-based; conditions: Escherichia coli, nutrient agar medium
Description: as §1

S. aureus A9537 = assay: as above; assay type: cell-based; conditions: Staphylococcus aureus, nutrient agar medium
Description: as §1

K. pneumoniae A20468 = assay: as above; assay type: cell-based; conditions: Klebsiella pneumoniae, nutrient agar medium
Description: as §1

[2] = test system: E. coli/NCCLS strain A20697; assay: as above; assay type: cell-based; conditions: Escherichia coli; nutrient agar medium
Description: as §1

[3] = test system: P. aeruginosa/ATCC 27853 A21508; assay: as above; assay type: cell-based; conditions: Pseudomonas aeruginosa, ATCC27853; nutrient agar medium
Description: as §1

P. aeruginosa A9843 = assay: as above; assay type: cell-based; conditions: Pseudomonas aeruginosa, nutrient agar medium
Description: as §1

P. vulgaris A21559 = assay: as above; assay type: cell-based; conditions: Proteus vulgaris, nutrient agar medium
Description: as §1

[4] = test system: S. faecalis/ATCC 29218 A25707; assay: as above; assay type: cell-based; conditions: Enterococcus faecalis, ATCC29218; nutrient agar medium
Description: as §1

[5] = test system: S. faecalis/ATCC 33186 A15708; assay: as above; assay type: cell-based; conditions: Enterococcus faecalis, ATCC33186; nutrient agar medium
Description: as §1

[6] = test system: P. aeruginosa/ATCC 23389 A20235; assay: as above; assay type: cell-based; conditions: Pseudomonas aeruginosa, ATCC23389; nutrient agar medium
Description: as §1

[7] = test system: B. subtilis/ATCC 6633 A9506-A; assay: as above; assay type: cell-based; conditions: Bacillus subtilis, ATCC6633; nutrient agar medium
Description: as §1

S. faecalis A20688 = assay: as above; assay type: cell-based; conditions: Enterococcus faecalis, nutrient agar medium
Description: as §1

[8] = test system: S. aureus/NCCLS strain A20698; assay: as above; assay type: cell-based; conditions: Staphylococcus aureus; nutrient agar medium
Description: as §1

K. pneumoniae A9664 = assay: as above; assay type: cell-based; conditions: Klebsiella pneumoniae, nutrient agar medium
Description: as §1

B16-F10 murine melanoma = assay: In vitro cytotoxicity assay; assay type: cell-based; conditions: Mus musculus, cell growth inhibition, four-fold serial dilution, values <500 mcg/ml positive indicator of activity
Description: (§2) N-Acetylesperamicin A1 was also tested in the in vitro cytotoxicity assay. This assay involves growing various mammalian tumor cells, including human tumor cells, on microtiter plates employing established tissue culture methods. The concentration of compound required to inhibit cell growth by 50% (IC50) was then determined by a four-fold serial dilution technique. The validity of the method has been supported by a report published in the "Proceedings of the American Association for Cancer Research", Vol. 25, 328, p. 1891 (1984). Tumor cells of the following types were employed: B16-F10 murine melanoma, Moser human colon, and three human colon tumor cell lines, namely HCT-116, HCT-VM34 and HCT/VP35, the latter two being resistant to teniposide (VM) and etoposide (VP).

Moser human colon = assay: In vitro cytotoxicity assay; assay type: cell-based; conditions: cell growth inhibition, four-fold serial dilution, values <500 mcg/ml positive indicator of activity
Description: as §2

HCT-116 = assay: In vitro cytotoxicity assay; assay type: cell-based; conditions: Homo sapiens, cell growth inhibition, four-fold serial dilution, values <500 mcg/ml positive indicator of activity
Description: as §2

HCT/VP35 = assay: In vitro cytotoxicity assay; assay type: cell-based; conditions: Homo sapiens; HCT/VP35, etoposide-resistant; cell growth inhibition; values <500 mcg/ml positive indicator of activity
Description: as §2

HCT/VM34 = assay: In vitro cytotoxicity assay; assay type: cell-based; conditions: Homo sapiens; HCT/VM34, teniposide-resistant; cell growth inhibition; values <500 mcg/ml positive indicator of activity
Description: as §2

pathogenic bacteria = assay: Antimicrobial activity (overall); assay type: cell-based
Description: as §1

C=C(OC)C(=O)Nc1cc(OC)c(OC)cc1C(=O)OC1CC(OC2C(=O)C(NC(=O)OC)=C3C(=CCSSSC)C2(O)C#CC=CC#CC3OC2OC(C)C(NOC3CC(O)C(SC)C(C)O3)C(O)C2OC2CC(OC)C(N(C(C)=O)C(C)C)CO2)OC(C)C1O (stereo not shown) [N-Acetylesperamicin A1]
% T/C (median survival time) (P388 murine leukemia; 0.0016 mg/kg): 147%
MST (P388 murine leukemia; 0.0016 mg/kg): 14.0 days
Average Wgt. change in g (day 4) (P388 murine leukemia; 0.0016 mg/kg): -0.5 g
No. Mice alive on day 5/total (P388 murine leukemia; 0.0016 mg/kg): 6/6
% T/C (median survival time) (P388 murine leukemia; 0.0032 mg/kg): 153%
MST (P388 murine leukemia; 0.0032 mg/kg): 14.5 days
Average Wgt. change in g (day 4) (P388 murine leukemia; 0.0032 mg/kg): -0.2 g
No. Mice alive on day 5/total (P388 murine leukemia; 0.0032 mg/kg): 6/6
% T/C (median survival time) (P388 murine leukemia; 0.0064 mg/kg): 147%
MST (P388 murine leukemia; 0.0064 mg/kg): 14.0 days
Average Wgt. change in g (day 4) (P388 murine leukemia; 0.0064 mg/kg): -1.7 g
No. Mice alive on day 5/total (P388 murine leukemia; 0.0064 mg/kg): 6/6
% T/C (median survival time) (P388 murine leukemia; 0.0128 mg/kg): 179%
MST (P388 murine leukemia; 0.0128 mg/kg): 17.0 days
Average Wgt. change in g (day 4) (P388 murine leukemia; 0.0128 mg/kg): -2.2 g
No. Mice alive on day 5/total (P388 murine leukemia; 0.0128 mg/kg): 6/6
% T/C (median survival time) (P388 murine leukemia; 0.0256 mg/kg): 63%
MST (P388 murine leukemia; 0.0256 mg/kg): 6.0 days
Average Wgt. change in g (day 4) (P388 murine leukemia; 0.0256 mg/kg): -3.1 g
No. Mice alive on day 5/total (P388 murine leukemia; 0.0256 mg/kg): 4/6
% T/C (median survival time) (P388 murine leukemia; 0.0512 mg/kg): 63%
MST (P388 murine leukemia; 0.0512 mg/kg): 6.0 days
Average Wgt. change in g (day 4) (P388 murine leukemia; 0.0512 mg/kg): -2.9 g
No. Mice alive on day 5/total (P388 murine leukemia; 0.0512 mg/kg): 4/6
% T/C (median survival time) (P388 murine leukemia; 0.0896 mg/kg): TOX
MST (P388 murine leukemia; 0.0896 mg/kg): TOX
Average Wgt. change in g (day 4) (P388 murine leukemia; 0.0896 mg/kg): -3.4 g
No. Mice alive on day 5/total (P388 murine leukemia; 0.0896 mg/kg): 0/6
MIC [1]: 0.03 µg/mL (≈ 0.0219 µM)
MIC (E. coli A15119): 32 µg/mL (≈ 23.4 µM)
MIC (S. aureus A9537): 0.008 µg/mL (≈ 0.00585 µM)
MIC (K. pneumoniae A20468): > 125 µg/mL
MIC [2]: 8 µg/mL (≈ 5.85 µM)
MIC [3]: > 125 µg/mL
MIC (P. aeruginosa A9843): > 125 µg/mL
MIC (P. vulgaris A21559): 125 µg/mL (≈ 91.4 µM)
MIC [4]: 0.016 µg/mL (≈ 0.0117 µM)
MIC [5]: 0.016 µg/mL (≈ 0.0117 µM)
MIC [6]: 125 µg/mL (≈ 91.4 µM)
MIC [7]: 0.03 µg/mL (≈ 0.0219 µM)
MIC (S. faecalis A20688): 0.03 µg/mL (≈ 0.0219 µM)
MIC [8]: 0.016 µg/mL (≈ 0.0117 µM)
MIC (K. pneumoniae A9664): 32 µg/mL (≈ 23.4 µM)
IC50 (B16-F10 murine melanoma): 0.0522 µg/mL (≈ 0.0382 µM)
IC50 (Moser human colon): 1 µg/mL (≈ 0.731 µM)
IC50 (HCT-116): 0.0135 µg/mL (≈ 0.00987 µM)
IC50 (HCT/VP35): 0.0271 µg/mL (≈ 0.0198 µM)
IC50 (HCT/VM34): 0.3 µg/mL (≈ 0.219 µM)
Antibacterial activity (in words) (pathogenic bacteria): showed activity against a variety of pathogenic bacteria
